Results taken from PubChem BioAssay AID1963961 (Molecular Pharmacology Branch, DTP, NCI, 2024).

Test system: K98450-129-R-PDC multicell spheroids, viability
Test: Anticancer human tumor K98450-129-R-PDC patient-derived colon adenocarcinoma cell line growth inhibition [PI3K]
Details: for IC50: curve of first compound; for viability, T/C: stronger effect = lower value
Summary of the method: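 Combination activity was assessed by viability in multicellular tumor spheroids carrying HUVEC and MSC components. Agents were tested with PI3K inhibitors from a Cmax-based top dose (or 10 microM) downward in half-log increments.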
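Further: spheroids exposed to agents for seven days before read-out.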

CCCS(=O)(=O)Nc1ccc(F)c(C(=O)c2c[nH]c3ncc(-c4ccc(Cl)cc4)cc23)c1F + COc1c(OCCCN2CCOCC2)ccc2c3n(c(=NC(=O)c4cnc(N)nc4)nc12)CCN3
IC50 (second compound 0.00316 µM): 5.99 µM
IC50 (second compound 0.01 µM): 5.77 µM
IC50 (second compound 0.0316 µM): 5.54 µM
IC50 (second compound 0.1 µM): 4 µM
IC50 (second compound 0.316 µM): 2.71 µM
IC50 (second compound 1 µM): 1.65 µM
viability, T/C (second compound 0.00316 µM, first compound 0.0316 µM): 107%
viability, T/C (second compound 0.00316 µM, first compound 0.1 µM): 105%
viability, T/C (second compound 0.00316 µM, first compound 0.316 µM): 95.1%
viability, T/C (second compound 0.00316 µM, first compound 1 µM): 120%
viability, T/C (second compound 0.00316 µM, first compound 3.16 µM): 105%
viability, T/C (second compound 0.00316 µM, first compound 10 µM): 5.65%
viability, T/C (second compound 0.01 µM, first compound 0.0316 µM): 116%
viability, T/C (second compound 0.01 µM, first compound 0.1 µM): 93%
viability, T/C (second compound 0.01 µM, first compound 0.316 µM): 93.4%
viability, T/C (second compound 0.01 µM, first compound 1 µM): 60.2%
viability, T/C (second compound 0.01 µM, first compound 3.16 µM): 93.9%
viability, T/C (second compound 0.01 µM, first compound 10 µM): 12.2%
viability, T/C (second compound 0.0316 µM, first compound 0.0316 µM): 99%
viability, T/C (second compound 0.0316 µM, first compound 0.1 µM): 95.5%
viability, T/C (second compound 0.0316 µM, first compound 0.316 µM): 82.3%
viability, T/C (second compound 0.0316 µM, first compound 1 µM): 78.3%
viability, T/C (second compound 0.0316 µM, first compound 3.16 µM): 91.6%
viability, T/C (second compound 0.0316 µM, first compound 10 µM): 8.56%
viability, T/C (second compound 0.1 µM, first compound 0.0316 µM): 84%
viability, T/C (second compound 0.1 µM, first compound 0.1 µM): 98.2%
viability, T/C (second compound 0.1 µM, first compound 0.316 µM): 76.2%
viability, T/C (second compound 0.1 µM, first compound 1 µM): 80.2%
viability, T/C (second compound 0.1 µM, first compound 3.16 µM): 61.7%
viability, T/C (second compound 0.1 µM, first compound 10 µM): 7.64%
viability, T/C (second compound 0.316 µM, first compound 0.0316 µM): 66.5%
viability, T/C (second compound 0.316 µM, first compound 0.1 µM): 79.5%
viability, T/C (second compound 0.316 µM, first compound 0.316 µM): 72%
viability, T/C (second compound 0.316 µM, first compound 1 µM): 80.2%
viability, T/C (second compound 0.316 µM, first compound 3.16 µM): 46.2%
viability, T/C (second compound 0.316 µM, first compound 10 µM): 7.49%
viability, T/C (second compound 1 µM, first compound 0.0316 µM): 57.6%
viability, T/C (second compound 1 µM, first compound 0.1 µM): 53.8%
viability, T/C (second compound 1 µM, first compound 0.316 µM): 54.3%
viability, T/C (second compound 1 µM, first compound 1 µM): 59.9%
viability, T/C (second compound 1 µM, first compound 3.16 µM): 41.9%
viability, T/C (second compound 1 µM, first compound 10 µM): 7.62%
